These results are taken from article PMC4120670 (Kidney International, 2014).

One series concerns the target T1, OAT2 (Homo sapiens, UniProt Q9Y694).
T1 sequence (Q9Y694 1-548): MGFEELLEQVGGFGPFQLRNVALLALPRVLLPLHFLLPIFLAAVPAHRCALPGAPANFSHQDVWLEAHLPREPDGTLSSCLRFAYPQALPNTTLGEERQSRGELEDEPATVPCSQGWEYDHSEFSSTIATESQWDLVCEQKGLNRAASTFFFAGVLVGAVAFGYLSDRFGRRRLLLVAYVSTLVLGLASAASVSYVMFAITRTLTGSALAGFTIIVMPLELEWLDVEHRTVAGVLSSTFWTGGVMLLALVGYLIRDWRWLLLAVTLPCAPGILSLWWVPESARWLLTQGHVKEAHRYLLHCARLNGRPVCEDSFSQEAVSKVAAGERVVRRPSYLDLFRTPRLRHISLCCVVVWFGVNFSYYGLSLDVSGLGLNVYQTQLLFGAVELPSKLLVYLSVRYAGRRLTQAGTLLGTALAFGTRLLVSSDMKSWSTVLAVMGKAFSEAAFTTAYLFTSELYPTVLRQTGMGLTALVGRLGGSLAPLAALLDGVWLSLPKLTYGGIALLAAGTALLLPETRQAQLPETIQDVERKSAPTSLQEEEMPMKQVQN
The series is described as follows: Inhibition of OAT2 transport of 3′,5′-cyclic GMP. It counts as cell-based.

Another series has as its target T2, OCT2 (Homo sapiens, UniProt O15244).
T2 sequence (O15244 1-555): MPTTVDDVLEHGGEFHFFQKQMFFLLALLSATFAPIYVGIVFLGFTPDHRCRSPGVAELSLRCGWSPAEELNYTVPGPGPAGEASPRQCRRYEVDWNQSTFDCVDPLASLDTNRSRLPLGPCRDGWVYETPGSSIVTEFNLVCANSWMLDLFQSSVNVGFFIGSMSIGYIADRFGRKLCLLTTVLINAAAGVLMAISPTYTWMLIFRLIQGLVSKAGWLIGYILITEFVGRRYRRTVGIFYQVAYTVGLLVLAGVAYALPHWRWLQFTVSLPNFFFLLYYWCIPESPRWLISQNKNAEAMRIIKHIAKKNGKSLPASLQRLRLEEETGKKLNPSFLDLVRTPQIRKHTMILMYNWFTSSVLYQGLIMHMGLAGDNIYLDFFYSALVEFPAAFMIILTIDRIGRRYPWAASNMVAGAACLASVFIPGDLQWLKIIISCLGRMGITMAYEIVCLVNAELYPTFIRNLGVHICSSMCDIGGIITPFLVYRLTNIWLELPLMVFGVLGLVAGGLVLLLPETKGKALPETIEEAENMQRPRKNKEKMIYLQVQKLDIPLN
The series is described as follows: Inhibition of OCT2 transport of tetraethylammonium. It counts as cell-based.

The next series has as its target T3, OCT3 (Homo sapiens, UniProt O75751).
T3 sequence (O75751 1-556): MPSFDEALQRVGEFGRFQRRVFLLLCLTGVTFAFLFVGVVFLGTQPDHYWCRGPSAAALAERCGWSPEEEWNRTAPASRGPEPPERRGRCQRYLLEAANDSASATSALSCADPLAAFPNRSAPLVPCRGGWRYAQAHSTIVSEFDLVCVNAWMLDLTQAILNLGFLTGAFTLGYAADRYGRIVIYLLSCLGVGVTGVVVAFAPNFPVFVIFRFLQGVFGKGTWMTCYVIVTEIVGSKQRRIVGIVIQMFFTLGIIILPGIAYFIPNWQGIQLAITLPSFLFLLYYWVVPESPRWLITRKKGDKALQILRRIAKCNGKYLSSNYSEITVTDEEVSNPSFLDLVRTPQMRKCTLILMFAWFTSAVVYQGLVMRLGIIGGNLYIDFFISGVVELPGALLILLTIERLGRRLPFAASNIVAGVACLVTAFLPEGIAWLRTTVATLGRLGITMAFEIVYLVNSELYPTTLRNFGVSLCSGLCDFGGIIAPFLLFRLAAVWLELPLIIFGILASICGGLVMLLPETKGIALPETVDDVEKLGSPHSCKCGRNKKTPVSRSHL
The series is described as follows: Inhibition of OCT3 transport of 1-methyl-4-phenylpyridinium. In kind it is cell-based.

The next series addresses MATE2-K (Homo sapiens, UniProt Q86VL8). The series is described as follows: Inhibition of MATE2-K transport of tetraethylammonium. It counts as cell-based.
The conditions of series [1]: most prominent effects, clinical; cited from earlier work.
For series [2] the following is noted: more modest effects, clinical; cited from earlier work.
Substrate in series [3]: CN1CC(=O)NC1=N
The series is described as follows: Creatinine transport by OCT2 in transiently transfected MDCKII cells. In kind it is cell-based, human. The note with it: other: creatinine transport by OCT2, transiently transfected cells.

Substrate in series [4]: CN1CC(=O)NC1=N
The series is described as follows: Creatinine transport by OAT2 in transiently transfected MDCKII cells. It counts as cell-based, human. The note with it: other: creatinine transport by OAT2, transiently transfected cells.

Substrate in series [5]: CN1CC(=O)NC1=N
The series is described as follows: Creatinine transport by OCT3 in transiently transfected MDCKII cells. It counts as cell-based, human. Conditions: other: creatinine transport by OCT3, transiently transfected cells.

Chain of MATE2-K (Q86VL8 1-566 isoform Q86VL8-3): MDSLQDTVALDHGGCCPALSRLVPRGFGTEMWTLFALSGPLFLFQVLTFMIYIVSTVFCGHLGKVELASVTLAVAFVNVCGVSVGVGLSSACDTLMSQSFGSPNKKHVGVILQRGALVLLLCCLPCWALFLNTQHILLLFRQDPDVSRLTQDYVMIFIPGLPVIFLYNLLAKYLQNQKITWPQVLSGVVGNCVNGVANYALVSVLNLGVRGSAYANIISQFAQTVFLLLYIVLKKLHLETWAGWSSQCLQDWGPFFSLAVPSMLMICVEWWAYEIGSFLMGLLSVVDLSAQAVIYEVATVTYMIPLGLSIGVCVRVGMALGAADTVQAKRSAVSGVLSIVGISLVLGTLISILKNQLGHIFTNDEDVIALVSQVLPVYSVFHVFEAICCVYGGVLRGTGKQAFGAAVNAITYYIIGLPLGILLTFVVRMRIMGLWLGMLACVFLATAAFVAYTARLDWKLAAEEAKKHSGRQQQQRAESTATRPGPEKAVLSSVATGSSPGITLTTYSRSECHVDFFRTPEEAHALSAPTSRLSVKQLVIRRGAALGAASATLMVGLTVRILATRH

Turning to `CC(C)c1nc(CN(C)C(=O)N[C@H](C(=O)N[C@@H](Cc2ccccc2)C[C@H](O)[C@H](Cc2ccccc2)NC(=O)OCc2cncs2)C(C)C)cs1` [Ritonavir, ritonavir], the “Concentration-dependent inhibition of OAT2-dependent transport” value at OAT2 (model substrate, curve could not be generated) was “lack of concentration-dependent inhibition”.

Turning to `COc1cc(Cc2cnc(N)nc2N)cc(OC)c1OC` [Trimethoprim, trimethoprim], on OCT2, half-maximal inhibition (IC50) required 68 ± 5.2 µM.

As for `CN/C(=N/CCSCc1nc[nH]c1C)NC#N` [Cimetidine, cimetidine], the IC50 came out at 72.8 ± 17 µM on OAT2, 135 ± 16 µM at OCT2, 87.7 ± 55.1 µM against OCT3 and 46.6 ± 7.23 µM at MATE2-K. Moreover, the “Decreases in creatinine clearance” value in [1] is reported as 15–34 ml/min per 1.73 m^2.

For the molecule `Cc1cc(/C=C/C#N)cc(C)c1Nc1ccnc(Nc2ccc(C#N)cc2)n1` [Rilpivirine, rilpivirine], in [2], the Serum creatinine increases is around 0.1 mg/dL.

B1: OCT2 (Homo sapiens) (protein)
chain: MPTTVDDVLEHGGEFHFFQKQMFFLLALLSATFAPIYVGIVFLGFTPDHRCRSPGVAELSLRCGWSPAEELNYTVPGPGPAGEASPRQCRRYEVDWNQSTFDCVDPLASLDTNRSRLPLGPCRDGWVYETPGSSIVTEFNLVCANSWMLDLFQSSVNVGFFIGSMSIGYIADRFGRKLCLLTTVLINAAAGVLMAISPTYTWMLIFRLIQGLVSKAGWLIGYILITEFVGRRYRRTVGIFYQVAYTVGLLVLAGVAYALPHWRWLQFTVSLPNFFFLLYYWCIPESPRWLISQNKNAEAMRIIKHIAKKNGKSLPASLQRLRLEEETGKKLNPSFLDLVRTPQIRKHTMILMYNWFTSSVLYQGLIMHMGLAGDNIYLDFFYSALVEFPAAFMIILTIDRIGRRYPWAASNMVAGAACLASVFIPGDLQWLKIIISCLGRMGITMAYEIVCLVNAELYPTFIRNLGVHICSSMCDIGGIITPFLVYRLTNIWLELPLMVFGVLGLVAGGLVLLLPETKGKALPETIEEAENMQRPRKNKEKMIYLQVQKLDIPLN
As to B1, the Km in series [3] was found to be 1860 ± 370 µM.

B2: OAT2 (Homo sapiens) (protein)
chain: MGFEELLEQVGGFGPFQLRNVALLALPRVLLPLHFLLPIFLAAVPAHRCALPGAPANFSHQDVWLEAHLPREPDGTLSSCLRFAYPQALPNTTLGEERQSRGELEDEPATVPCSQGWEYDHSEFSSTIATESQWDLVCEQKGLNRAASTFFFAGVLVGAVAFGYLSDRFGRRRLLLVAYVSTLVLGLASAASVSYVMFAITRTLTGSALAGFTIIVMPLELEWLDVEHRTVAGVLSSTFWTGGVMLLALVGYLIRDWRWLLLAVTLPCAPGILSLWWVPESARWLLTQGHVKEAHRYLLHCARLNGRPVCEDSFSQEAVSKVAAGERVVRRPSYLDLFRTPRLRHISLCCVVVWFGVNFSYYGLSLDVSGLGLNVYQTQLLFGAVELPSKLLVYLSVRYAGRRLTQAGTLLGTALAFGTRLLVSSDMKSWSTVLAVMGKAFSEAAFTTAYLFTSELYPTVLRQTGMGLTALVGRLGGSLAPLAALLDGVWLSLPKLTYGGIALLAAGTALLLPETRQAQLPETIQDVERKSAPTSLQEEEMPMKQVQN
In the case of B2, the Km in series [4] stood at 986 ± 177 µM.

B3: OCT3 (Homo sapiens) (protein)
chain: MPSFDEALQRVGEFGRFQRRVFLLLCLTGVTFAFLFVGVVFLGTQPDHYWCRGPSAAALAERCGWSPEEEWNRTAPASRGPEPPERRGRCQRYLLEAANDSASATSALSCADPLAAFPNRSAPLVPCRGGWRYAQAHSTIVSEFDLVCVNAWMLDLTQAILNLGFLTGAFTLGYAADRYGRIVIYLLSCLGVGVTGVVVAFAPNFPVFVIFRFLQGVFGKGTWMTCYVIVTEIVGSKQRRIVGIVIQMFFTLGIIILPGIAYFIPNWQGIQLAITLPSFLFLLYYWVVPESPRWLITRKKGDKALQILRRIAKCNGKYLSSNYSEITVTDEEVSNPSFLDLVRTPQMRKCTLILMFAWFTSAVVYQGLVMRLGIIGGNLYIDFFISGVVELPGALLILLTIERLGRRLPFAASNIVAGVACLVTAFLPEGIAWLRTTVATLGRLGITMAFEIVYLVNSELYPTTLRNFGVSLCSGLCDFGGIIAPFLLFRLAAVWLELPLIIFGILASICGGLVMLLPETKGIALPETVDDVEKLGSPHSCKCGRNKKTPVSRSHL
Take B3: the Km in series [5] was 1320 ± 380 µM.

As usually defined, the IC50 is the concentration needed to halve the response being measured. A higher IC50 goes with lower potency. The term Km denotes the substrate concentration at which the rate is half of its maximum.
